# Results from patent publication US10500198B2, “Bis-benzylidine piperidone proteasome inhibitor with anticancer activity” (The Johns Hopkins University, priority 2013, dated 2019).
# Tests used:
# C33A = assay: Cell viability after 48-hr treatment (Table 1); type: cell-based; conditions: 48-hr treatment; XTT assay; read-out: IC50, C33A
# Method: (§1) Cell viability was assayed using CellTiter 960 AQueous One Solution Reagent (Promega, Madison, Wis.). Cells seeded at the concentration of 1,000 cells/well for HeLa, 5,000 cells/well for ES2 and HCT116 and 10,000-20,000 cells/well for other cell lines in 100 μL medium in 96-well plate were treated with RA series compounds at specified concentrations. […]
# FaDu = assay: Cell viability after 48-hr treatment (Table 1); type: cell-based; conditions: 48-hr treatment; XTT assay; read-out: IC50, FaDu
# Method: as §1
# MM.1S = assay: Cell viability after 48-hr treatment (Table 1); type: cell-based; conditions: XTT assay
# Method: as §1
# SKOV3 = assay: Cell viability after 48-hr treatment (Table 1); type: cell-based; conditions: 48-hr treatment; XTT assay; read-out: IC50, SKOV3
# Method: as §1
# ES-2 = assay: Cell viability after 48-hr treatment (Table 1); type: cell-based, human; conditions: XTT assay
# Method: (§2) Cells seeded at the concentration of 1,000 cells/well for HeLa, 5,000 cells/well for ES2 and HCT116 and 10,000-20,000 cells/well for other cell lines in 100 μL medium in 96-well plate were treated with RA series compounds at specified concentrations. […]
# NCl-H929 = assay: Cell viability after 48-hr treatment (Table 1); type: cell-based, human; conditions: XTT assay
# Method: as §2
# MM and HeLa cells = assay: Annexin-V flow cytometry; type: cell-based; conditions: 12 hr after treating
# Method: Activation of ICE family members such as caspase-3 and -7 results in cleavage of poly ADP ribose polymerase (PARP) to 85 kDa and 25 kDa fragments and drives apoptosis.
# Induction of apoptosis was determined using Annexin V-PE Apoptosis Detection Kit I (BD Pharmingen, San Diego, Calif.) according to the manufacturer's protocol.
# HeLa cells = assay: Cell surface HSP90 staining; type: cell-based, human; conditions: 24 hr
# Description: Cell surface HSP90 was detected by staining with purified anti-HSP90 mAb (Stressgen), followed by PE-conjugated anti-mouse IgG1. The data were acquired with a FACSCalibur and analyzed using CellQuest software.
# [1] = Pharmacokinetic measurements, plasma; type: in vivo, mouse; conditions: 10 mg/kg i.p., BALB/c mice
# Method: Tissue was harvested at 48 hr after single-dose intraperitoneal administration in non-tumor bearing mice. Blood was collected by cardiac puncture under anesthesia into heparinized syringes and centrifuged to obtain plasma. Tissues were rapidly dissected and snap frozen in liquid nitrogen. Samples were stored frozen at −70° C. until analysis. […] Tissue homogenates were prepared at a concentration of 200 mg/mL in PBS and further diluted 1:10 in mouse plasma before extraction using acetonitrile containing temazepam (100 ng/mL). Separation was achieved on Waters X-Terra™ C18 (50 mm×2.1 mm i.d., 3 μm) at room temperature using isocratic elution with acetonitrile/water mobile phase (70:30, v/v) containing 0.1% formic acid at a flow rate of 0.2 mL/min. […] Samples were quantitated over the assay range of 10 to 1000 ng/mL or 0.6 to 60 μg/g. […] Cmax and Tmax were the observed values from the mean data. The AUClast was calculated using the log-linear trapezoidal rule to the end of sample collection (AUClast) and extrapolated to infinity (AUC0-∞) by dividing the last quantifiable concentration by the terminal disposition rate constant (λz), which was determined from the slope of the terminal phase of the concentration-time profile. The half-life (T1/2) was determined by dividing 0.693 by λz. Relative bioavailability was calculated as follows: […]
# ES2-luciferase tumor = ES2-luciferase tumor in nude mice; type: in vivo, mouse; conditions: 10 mg/kg i.p. every day, 14 days
# Description: Prior to and at the end of the treatment, mice were imaged for bioluminescence. […] The mice were imaged before and at the end of the treatment for bioluminescence levels. We have previously described the susceptibility of human ovarian cancer lines to proteasome inhibition. […] Prior to and 7 and 14 days after initiation of treatment, the mice were imaged for luciferase activity.
# For TC-1 tumors, C57BL/6 mice (8/group) were challenged subcutaneously with 5×10^4 TC-1 cells/mice. Tumors grew for approximately 7 days until they were palpable, whereupon the mice were weighed and treatment was initiated. Tumor size was measured with a digital caliper and calculated based on the formula: [largest diameter×(perpendicular diameter)2]π/6. Nude mice (8 per group) were inoculated with 1×10^6 EΩ-Luciferase cells i.p. in 100 μL PBS. At day 3 mice were imaged for basal level luminescence expression. […] NOG mice (5 per group) were inoculated with 1×10^6 NCI-H929-GFP-Luc cells i.v., and after 4 weeks, mice were imaged for their luciferase activity and divided into two groups.
# [2] = tested on: p53 in HeLa, CaSki, and SiHa cells; assay: Immunoblot for p53 in cervical cancer cells; type: cell-based; conditions: 24 hr
# 4UbFL reporter = assay: Proteasome inhibition in vivo (4UbFL reporter bioluminescence)
# [3] = Complete blood counts, blood chemistry and histopathology of healthy Balb/C mice
# [4] = i.m. electroporated 4UbFL, RA190 40 mg/kg i.p., bortezomib 1.5 mg/kg i.p.
# [5] = healthy Balb/C mice, 3 doses 40 mg/kg p.o. every third day, mean ± SD, n = 3
structure (smiles),measurement,setting,value
"Cl.N[C@@H](Cc1ccccc1)C(=O)N1CC(=Cc2ccc(Cl)c(Cl)c2)C(=O)C(=Cc2ccc(Cl)c(Cl)c2)C1 [RA190, 3,5-bis(3,4-dichlorobenzylidene)-1-(S-2-amino-3-phenyl)-piperidin-4-one-HCl salt]",IC50,C33A,> 5000 nM
same,IC50,FaDu,> 2500 nM
same,IC50,MM.1S,35 nM
same,IC50,SKOV3,> 2500 nM
same,IC50,ES-2,750 nM
same,IC50,NCl-H929,50 nM
same,apoptosis (Annexin-V),MM and HeLa cells,trigger extensive apoptosis
same,cells with cell-surface HSP90,HeLa cells,54.2%
same,AUC,[1],4393 ng·h/mL
same,C1/F,[1],38.3 mL/min/kg
same,Cmax,[1],808 ng/mL
same,"T1/2,α (distribution half-life)",[1],4.2 h
same,"T1/2,β (terminal half-life)",[1],25.5 h
same,Ud/F,[1],83.61 L/kg
same,ES2 tumor growth (bioluminescence),ES2-luciferase tumor,significantly inhibited
same,p53 levels,[2],elevated p53 levels
same,bioluminescence after oral administration,"4UbFL reporter; 40 mg/kg orally, 4UbFL i.m. by electroporation or in skin via gene gun",increased the bioluminescence
same,4UbFL reporter in skin after topical administration,4UbFL reporter; 4% in Cremophor-EL topically,stabilized the 4UbFL reporter in skin
same,bioluminescence at 48 hr after treatment,"4UbFL reporter; i.m. electroporated 4UbFL, RA190 40 mg/kg i.p.",significant increase in bioluminescence
same,"bioluminescence compared to vehicle alone, 4 hr after treatment",4UbFL reporter; [4],4 fold
same,"increase in bioluminescence, one day post-treatment",4UbFL reporter; [4],4 fold
same,ALBNEW (Albumin),[3]; [5],3.03 ± 0.05
same,ALPNEW (Alkaline Phosphatase),[3]; [5],84.33 ± 7.57
same,ALTNEW (Alanine Aminotransferase),[3]; [5],39.66 ± 4.04
same,AMYL (Amylase),[3]; [5],743 ± 29.4
same,ASTNEW (Aspartate aminotransferase),[3]; [5],62.66 ± 11.01
same,BA(Basophils),[3]; [5],0.06 ± 0.07
same,BUNNEW (Blood Urea Nitrogen),[3]; [5],20 ± 2.64
same,CA (Calcium),[3]; [5],9 ± 0.2
same,CHOL (Cholesterol),[3]; [5],114 ± 12.12
same,CK_NEW (Creatinine Kinase),[3]; [5],55.66 ± 25.48
same,CREAT (Creatinine),[3]; [5],0.36 ± 0.05
same,EO (Eosinophils),[3]; [5],0.24 ± 0.23
same,GGTNEW (Gamma-Glutamyl Transferase),[3]; [5],4.33 ± 0.57
same,GLU (Glucose),[3]; [5],175.33 ± 20.5
same,HCT(Hematocrit),[3]; [5],55.66 ± 1.70
same,HDLNEW (High Density Lipoprotein),[3]; [5],49 ± 5.29
same,Hb (Hemoglobin),[3]; [5],14.63 ± 0.15
same,K (Potassium),[3]; [5],6.05 ± 0.21
same,LDH (lactate Dehydrogenase),[3]; [5],160 ± 37.51
same,LY(Lymphocytes),[3]; [5],4.78 ± 1.89
same,MCH (Mean corpuscular hemoglobin),[3]; [5],14.10 ± 0.2
same,MCHC (mean corpuscular hemoglobin concentration),[3]; [5],26.33 ± 0.55
same,MCV (Mean corpuscular Volume),[3]; [5],53.60 ± 0.26
same,MO(Monocytes),[3]; [5],0.34 ± 0.28
same,MPV (Mean Platelet Volume),[3]; [5],5.06 ± 0.37
same,NE(Neutrophils),[3]; [5],2.43 ± 0.94
same,Na (Sodium),[3]; [5],147.5 ± 0.70
same,PLT (Platelet),[3]; [5],533 ± 61.65
same,RBC (red Blood Cells),[3]; [5],10.38 ± 0.26
same,RDW (Red Blood Cell Distribution Width),[3]; [5],17.23 ± 0.30
same,TBIL1 (Total bilirubin),[3]; [5],0.26 ± 0.05
same,TPROT (Total protein),[3]; [5],5.16 ± 0.05
same,TRIG (Triglycerides),[3]; [5],107.33 ± 22.40
same,UA (Uric Acid),[3]; [5],1.5 ± 0.26
same,WBC(White Blood Cells),[3]; [5],7.88 ± 3.42
same,blood chemistry and hematologic panels versus vehicle,"[3]; three doses of 40 mg/kg p.o. every third day, euthanized on day 12",No significant difference
